“And” between values parts separate entries of the source, which are not always exact repeats. Identical values can stand only once. Square brackets hold non-standard residues; d marks the D form. Peptide text beside a SMILES is read from it.
Key:
LPS-induced fever = assay: LPS-induced temperature increase (fever); type: in vivo, rats; conditions: 150 μg/kg IP; 6 hr following LPS injection
Experimental: Male Wistar rats (45-75 days old) were placed in a temperature controlled room held at 26° C., which is thermoneutral for the normal body temperature of rats, and were maintained in the room with free access to food and water for 24 hr prior to testing. On the morning of the study, rats were marked for identification and weighed. The temperature of each rat was determined by placing the animal in a regulatory cage designed to minimize stress and inserting a temperature probe (YSI probe #402) 3-5 cm into the animal's rectum. The temperature was recorded 15 sec after the reading stabilized. Measurements were repeated 1 hr later to establish a baseline temperature for each rat.
After the baseline temperatures were established, rats were injected IP with saline, IL-1β or LPS endotoxin. Rats then were injected IP with either saline (control) or various concentrations of EX-2, EX-3, or EX-4 (treated). The temperature of the rats was measured every hr for 6 hr and the inhibition by EX-2, EX-3, or EX-4 of the rise in temperature due to IL-1β or LPS was determined.
In addition, treatment with 50 or 150 μg/kg EX-2 inhibited LPS-induced fever by 45% or 52%, respectively, when measured 6 hr following LPS injection. Furthermore, treatment with 150 μg/kg EX-3 or EX-4 inhibited LPS-induced fever by 57% and 52%, respectively (Table II).

TNF-α [1] = assay: LPS-induced TNF-α levels, oral (gavage) dosing; type: in vivo, mice; conditions: one min before 0.1 mg LPS IP
Experimental: The ability of orally administered cytokine regulatory agents to reduce LPS-induced TNF-α levels also was examined. Balb/c female mice (20 g) were administered 150 μg or 300 μg EX-2, EX-3, EX-5 or EX-6 in 100 μl saline by gavage. Control mice received 100 μl saline, alone. One min later, 0.1 mg LPS was administered by IP injection. Samples were collected and TNF-α levels were determined as described in Example III, above.
The mean TNF-α levels in the mice from each group (n=9-20) was determined and the percent reduction in TNF-α levels was calculated.

[2] = test system: arachidonic acid-induced ear swelling; assay: Arachidonic acid-induced ear swelling; type: in vivo, mice; conditions: 100 μg/mouse IP 30 min prior to AA; 60 min after AA
Experimental: Experiments were performed using female Balb/c mice weighing 18-23 grams. Saline or 100 μg EX-2 or EX-3 was administered IP, 30 min prior to topical application of arachidonic acid (AA). A 10 μl pipet was used to apply 10 μl AA solution (100 mg/ml ethanol; Calbiochem-Novabiochem; San Diego Calif.) to the inner and outer surfaces of the right ear of each mouse. Ten μl ethanol, alone, was applied to the inner and outer surface of the left ear of each mouse. Ear thickness was measured with a hand-held spring loaded caliper immediately before and 60 min after AA application. Increase in ear thickness was calculated by subtracting the change observed in the control ear from the change observed in AA-treated ear. The value for each group (saline and control) is the average of the swelling observed in the individual mice in each group. The percent reduction of swelling is based on the swelling observed in the saline control group.

TNF-α [3] = assay: Reduction of LPS-induced TNF levels in mice (IP dosing); type: in vivo; conditions: 150 μg/mouse IP, one min before LPS 5 mg/kg IP
Experimental: Balb/c female mice weighing approximately 20 g were placed into two groups, a control group and a treated group. Five mg/kg of LPS in 0.9% saline was administered by intraperitoneal (IP) injection into the control mice. Mice in the treated group were first injected IP with 30 μg EX-2 or 150 μg EX-3 in saline, then, one min after EX-2 or EX-3 was administered, the mice received LPS as described for the control group.
Blood samples were collected from the orbital sinus of treated and control mice at various times up to four hr after LPS was administered. The plasma was separated by centrifugation at 3000×g for 5 min, then diluted with four volumes of 1× phosphate buffer saline (pH 7.4) containing 1% bovine serum albumin. A 100 μl sample of serum was assayed by ELISA for TNF-α (Genzyme; Cambridge Mass.).
The mean (+/- SEM) TNF-α level in six mice from each group was determined and the percent reduction in TNF levels was calculated.

[4] = test system: Carageenan-induced paw swelling; assay: Carageenan-induced paw swelling; type: in vivo, mice; conditions: 1 μg/mouse; 2 hr time point
Experimental: Carageenan-induced paw swelling was induced using a modification of the methods of Hiltz and Lipton, Peptides 11:979-982 (1990); Vinegar et al., Fed. Proc. 46:118-126 (1987); and Vinegar et al., J. Pharmacol. Expt. Therap. 166:96-103 (1969), each of which is incorporated herein by reference. Briefly, adult female Balb/c mice were anesthetized by IP injection of 7 mg/kg ketoamine and 0.6 mg/kg rompun. Foot pad thickness was measured using a spring loaded micrometer (Swiss Precision Instruments). Foot pad thickness was expressed in units of 1/100 inch. After baseline measurements were obtained, mice were injected into a hind foot pad with either 0.2 ml physiologic saline (control) or varying doses of EX-2 or EX-3 in 0.2 ml saline (treated). The first injection was followed immediately by injection of 0.02 ml of 0.15% K-carageenan (Sigma Chemical Co.; St. Louis, Mo.).
Hind foot pad thickness was measured hourly for six hr, the change in thickness was determined and the percent reduction in swelling due to treatment with EX-2 was calculated.

LPS-induced lethality [5] = assay: LPS-induced lethality (IP dosing); type: in vivo, mice; conditions: 11 × 300 μg/mouse IP (3.3 mg), every 4 hr; 0.6 mg LPS
Experimental: These experiments were performed based on information reported by Rivier etal., Endocrinology 125:2800-2805 (1989), which is incorporated herein by reference. Adult female Balb/c mice were provided food and water ad libitum. Mice were injected IP every four hr for 40 hr with 30 to 300 μg EX-2, EX-3 or EX-4 in 0.2 ml saline (treated group) or with 0.2 ml saline, alone (control group) (10 mice per group). Immediately following the first injection, 0.6 mg LPS endotoxin in 0.2 ml saline was administered to each mouse. Following LPS injection, EX-2 or saline was administered to the treated mice or the control mice, respectively, every 4 hr for 36 hr.

[6] = test system: morphine-induced respiratory depression; assay: Morphine-induced respiratory depression; type: in vivo, rabbits; conditions: 10 + 20 + 20 μg/kg/rabbit iv; end of experiment (80 min)
Experimental: Male Shelton rabbits (3-4 kg) were restrained and fitted around the thorax, just behind the front limbs, with a respiration transducer (Model F-RCT; Grass Instruments; Quincy Ma). The transducer was connected to a grass polygraph via an EKG cable. An intravenous line was established for drug administration by cannulating the marginal ear vein using a 25 G butterfly needle.
Rabbit breathing was allowed to stabilize, then morphine sulfate (2 mg/kg in 0.5 ml saline) was administered by intravenous (iv) injection and respiratory rate and depth were monitored for 10 min. A second dose of morphine was administered, then, after 10 min, EX-2 or EX-3 (10 μg/kg in 0.5 ml saline) was administered, iv, and rabbits were monitored for 20 min. Two additional doses of EX-2 or EX-3 (20 μg/kg in 1.0 ml saline) were administered at 20 min intervals, i.e., 40 min and 60 min after the first morphine injection.
Results were calculated as the percent change from baseline values and are expressed as the difference of the mean value of the treated group minus the mean value of the control group at the end of the experiment (80 min).

LPS-induced lethality [7] = assay: LPS-induced lethality, oral (gavage) dosing; type: in vivo; conditions: control mice 0%
Experimental: The LPS-induced lethality studies were performed based on information reported by Rivier et al., supra, 1989. Adult female Balb/c mice were provided food and water ad libitum. Mice were administered 150 μg or 300 μg EX-2, EX-3, EX-5 or EX-6 in 100 μl saline by gavage every 4 hr for 40 hr (total doses of 1.65 mg and 3.3 mg, respectively). Control mice received 100 μl saline, alone. Immediately following the first dose of cytokine regulatory agent or saline, 0.6 mg LPS in 0.2 ml saline was administered by IP injection.

Compound | Reduction in LPS-induced Fever (LPS-induced fever) [%] | percent reduction in TNF-α levels, oral dosing (TNF-α [1]; 150 μg by gavage) [%] | percent reduction in TNF-α levels, oral dosing (TNF-α [1]; 300 μg by gavage) [%] | Reduction in arachidonic acid-induced Ear Swelling [2] [%] | Reduction in TNF levels (TNF-α [3]) [%] | Reduction in Carageenan-induced Paw Swelling [4] [%] | Inhibition of LPS-induced Lethality (increase in survival vs control) (LPS-induced lethality [5]) [%] | Reduction in Morphine-induced Respiratory Depression [6] [%] | survival after LPS, oral dosing (LPS-induced lethality [7]; 3.3 mg total (300 μg by gavage every 4 hr for 40 hr)) | survival after LPS, oral dosing (LPS-induced lethality [7]; 1.65 mg total (150 μg by gavage every 4 hr for 40 hr)) [%]
CC(=O)N[C@H](C(=O)N[C@@H](CCC(N)=O)C(=O)N[C@@H](Cc1c[nH]cn1)C(=O)N[C@H](Cc1ccccc1)C(=O)N[C@@H](CCCNC(=N)N)C(=O)N[C@H](Cc1c[nH]c2ccccc12)C(=O)NCC(N)=O)C1CCCCC1 [EX-3, Ac-(cyclohexyl)Gly-Gln-His-(D) Phe-Arg- (D) Trp-Gly-NH2] | 57 | 49 | 40 | 62 | 56 | 49 | 86 | 65 | – | –
CC(=O)N[C@H](Cc1ccccc1)C(=O)N[C@@H](CCCNC(=N)N)C(=O)N[C@H](Cc1c[nH]c2ccccc12)C(N)=O [EX-4, Ac- (D) Phe-Arg-(D) Trp-NH2] | 52 | – | – | – | 53 | – | 75 | – | – | –
CC(=O)N[C@@H](Cc1c[nH]cn1)C(=O)N[C@H](Cc1ccccc1)C(=O)N[C@@H](CCCNC(=N)N)C(=O)N[C@H](Cc1c[nH]c2ccccc12)C(=O)NCC(N)=O [EX-5, Ac-His- (D) Phe-Arg- (D) Trp-Gly-NH2] (Ac-H[dF]R[dW]G-NH2) | – | – | 44 | – | – | – | – | – | 63% and 44% | –
CC(=O)N[C@@H](Cc1c[nH]cn1)C(=O)N[C@H](Cc1ccccc1)C(=O)N[C@@H](CCCNC(=N)N)C(=O)N[C@H](Cc1c[nH]c2ccccc12)C(N)=O [EX-6, Ac-His-(D)Phe-Arg-(D)TrP-NH2] | – | – | – | – | – | – | – | – | – | 68
